{"source": "patent US20050239826A1", "about": "(Boehringer Ingelheim International GmbH, priority 2004, published 2005)", "key": {"[1]": {"conditions": "rats, intraventricular administration, compared with control animals; cited from earlier work"}, "hMCH-1R": {"target": "T1, hMCH-1R (Homo sapiens, UniProt Q99705)", "T1 construct": "expressed in transfected cells", "T1 sequence (Q99705 whole entry)": "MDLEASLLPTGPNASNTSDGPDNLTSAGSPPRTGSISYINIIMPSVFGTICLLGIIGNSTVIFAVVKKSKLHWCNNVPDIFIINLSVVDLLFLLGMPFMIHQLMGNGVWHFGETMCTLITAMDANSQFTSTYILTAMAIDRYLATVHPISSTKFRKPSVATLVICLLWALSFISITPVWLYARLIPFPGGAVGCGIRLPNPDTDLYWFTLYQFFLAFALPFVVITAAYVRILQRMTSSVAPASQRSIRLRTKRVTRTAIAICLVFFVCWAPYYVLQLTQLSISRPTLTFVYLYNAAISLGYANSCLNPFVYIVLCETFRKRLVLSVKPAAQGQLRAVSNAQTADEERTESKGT", "assay": "MCH-1 receptor binding test (125I-MCH binding to membranes of hMCH-1R transfected CHO/Galpha16 cells)", "conditions": "100 pM 125I-MCH", "description": "After the incubation the reaction is filtered using a cell harvester through 0.5% PEI treated fibreglass filters (GF/B, Unifilter Packard). The membrane-bound radioactivity retained on the filter is then determined after the addition of scintillator substance (Packard Microscint 20) in a measuring device (TopCount of Packard). […] The analysis of the concentration binding curve is carried out on the assumption of one receptor binding site."}, "[2]": {"conditions": "long term trials, treated animals; cited from earlier work"}, "[3]": {"conditions": "rats; cited from earlier work"}}}
{"compound": "CSCC[C@@H]1NC(=O)[C@@H](NC(=O)[C@H](CCCNC(=N)N)NC(=O)[C@H](CC(C)C)NC(=O)[C@H](CCSC)NC(=O)[C@H](CC(=O)O)NC(=O)[C@H](Cc2ccccc2)NC(=O)[C@@H](N)CC(=O)O)CSSC[C@@H](C(=O)N[C@@H](Cc2c[nH]c3ccccc23)C(=O)N[C@@H](CCC(N)=O)C(=O)N[C@H](C(=O)O)C(C)C)NC(=O)[C@@H]2CCCN2C(=O)[C@H](CCCNC(=N)N)NC(=O)[C@H](Cc2ccc(O)cc2)NC(=O)[C@H](C(C)C)NC(=O)[C@H](CCCNC(=N)N)NC(=O)CNC(=O)[C@H](CC(C)C)NC1=O", "note": "[MCH, Melanin-concentrating hormone]", "values": [{"measurement": "food intake", "setting": "[1]", "value": "food intake was increased"}]}
{"compound": "OCCCN(CCOc1ccc(C#Cc2ccc(-c3ccc(Cl)cc3)cn2)cc1)CC1(O)CC1", "note": "[Example 2.20, 1-{[(2-{4-[5-(4-chloro-phenyl)-pyridin-2-ylethynyl]-phenoxy}-ethyl)-(3-hydroxy-propyl)-amino]-methyl}-cyclopropanol]", "values": [{"measurement": "IC50", "setting": "hMCH-1R", "value": 13.8, "unit": "nM"}]}
{"compound": "Cc1cc(C#Cc2ccc(-c3ccc(Cl)cc3)cn2)ccc1OCCN1CC[C@H](O)[C@](C)(O)C1", "note": "[Example 1.5, (3R,4S)-1-(2-{4-[5-(4-chloro-phenyl)-pyridin-2-ylethynyl]-2-methyl-phenoxy}-ethyl)-3-methyl-piperidine-3,4-diol]", "values": [{"measurement": "IC50", "setting": "hMCH-1R", "value": 10.9, "unit": "nM"}]}
{"compound": "COCC1=C(C(=O)OC)[C@H](c2ccc(F)c(F)c2)N(C(=O)NCCCN2CCC(c3cccc(NC(C)=O)c3)CC2)C(=O)N1", "note": "[SNAP-7941]", "values": [{"measurement": "body weight", "setting": "[2]", "value": "lose significant amounts of weight"}, {"measurement": "effects in behavioural experiments", "setting": "[3]", "value": "anxiolytic and antidepressant effects"}]}
